Test results published in publication PMC5552351, “Bacteriological profiling of diphenylureas as a novel class of antibiotics against methicillin-resistant Staphylococcus aureus” (PLoS ONE, 2017).
Values after ≈ are worked out from the molar mass of the structure shown. Read-outs that look alike come from different tables or passages of the source.

Experiments:
[1] = test system: clinically-relevant strains of MRSA and VRSA; experiment: broth microdilution MIC/MBC, panel summary; assay type: cell-based; conditions: Staphylococcus aureus, summary over the MRSA isolates of Table 1; read-out: concentration inhibiting growth of MRSA isolates (MIC)
Method: (§1) The broth microdilution assay was employed to determine the MIC of compounds 1, 2, and vancomycin against five MRSA strains, four VRSA strains, one highly mupirocin-resistant S. aureus strain, one biofilm-forming S. aureus (ATCC 6538) strain, and one biofilm-forming methicillin-resistant S. epidermidis strain, as per the guidelines of the Clinical and Laboratory Standards Institute (CLSI). […] The MBC was determined by plating an aliquot (5 μL) from wells with no growth onto TSA plates. Plates were incubated at 37 °C for 19 hours before recording the MBC (concentration where no growth was observed on TSA plates).

[2] = test system: human keratinocyte cell line; set-up: method as in PMID 28249208; conditions: human keratinocytes; ref [21]; cited from earlier work
[3] = test system: S. aureus ATCC 6538 biofilm; experiment: biofilm mass disruption, crystal violet reporter assay; assay type: cell-based, Staphylococcus aureus; conditions: all concentrations tested
Method: (§2) Compounds 1, 2, and vancomycin were examined for their ability to eradicate mature staphylococcal biofilm using the microtiter dish biofilm formation assay. S. epidermidis NRS101 and S. aureus ATCC 6538 were selected as the test organisms given their ability to form strong adherent biofilm. An overnight culture of bacteria was diluted (1:100 in TSB + 1% glucose) and transferred to a 96-well plate. The plate was incubated for 24 hours at 37 °C in order to form adherent biofilm on the surface of the plate wells. The medium containing the bacterial suspension was removed and the biofilm was washed with sterile PBS to remove planktonic cells. Compounds 1, 2, or vancomycin (from 128 to 1 μg/mL), in triplicate, in TSB were incubated with the biofilm for 24 hours at 37 °C.
Compounds were subsequently removed. The biofilm was washed with PBS and then stained with 1% (w/v) crystal violet for 40 minutes. The stain was removed and wells were washed with sterile PBS. Wells were next decolorized using 95% ethanol. The optical density of each well at 595 nm was measured using a microplate reader.

MRSA USA400 (NRS123) = experiment: MIC in presence and absence of human serum albumin; assay type: cell-based, Staphylococcus aureus; conditions: for increase in MIC in the presence of HSA: MRSA USA400, 4% human serum albumin vs none; for MIC: Staphylococcus aureus, TSB
Method: The broth microdilution assay presented above was used to assess if compounds 1 and 2 bind to a major component of blood (human serum albumin) thus limiting the free fraction of drug available to exert its antibacterial effect. […] CaCl2 ([…]) was added to wells containing daptomycin, per the CLSI guidelines.

[4] = test system: S. aureus ATCC 6538 biofilm; experiment: bacterial CFU inside mature biofilm post-treatment; assay type: cell-based, Staphylococcus aureus; conditions: 24 hours
Method: as §2
(§3) For enumeration of viable CFU inside the biofilm, compounds were removed, wells were washed with sterile PBS, and treated with 0.25% Trypsin-2.21 mM EDTA solution as described elsewhere. The solution containing cells was transferred to a 96-well plate, serially diluted in PBS, and plated on TSA. Plates were incubated at 37 °C for 19 hours before viable CFU were counted. Data are presented as average log10(CFU/mL) of bacteria present in the biofilm post-treatment.

MRSA NRS387 (USA800) = experiment: broth microdilution MIC/MBC; assay type: cell-based; conditions: Staphylococcus aureus, MRSA NRS387 (USA800); for MBC: read-out: MBC; for MIC: read-out: MIC
Method: as §1

VRS11a = experiment: broth microdilution MIC/MBC; assay type: cell-based; conditions: Staphylococcus aureus, VRS11a, vancomycin-resistant S. aureus; for MBC: read-out: MBC; for MIC: read-out: MIC
Method: as §1

VRS7 = experiment: broth microdilution MIC/MBC; assay type: cell-based; conditions: Staphylococcus aureus, VRS7, vancomycin-resistant S. aureus; for MBC: read-out: MBC; for MIC: read-out: MIC
Method: as §1

MRSA NRS483 (USA1000) = experiment: broth microdilution MIC/MBC; assay type: cell-based; conditions: Staphylococcus aureus, MRSA NRS483 (USA1000); for MBC: read-out: MBC; for MIC: read-out: MIC
Method: as §1

MRSA NRS384 (USA300) = experiment: broth microdilution MIC/MBC; assay type: cell-based; conditions: Staphylococcus aureus, MRSA NRS384 (USA300); for MBC: read-out: MBC; for MIC: read-out: MIC
Method: as §1

S. aureus NRS107 = experiment: broth microdilution MIC/MBC; assay type: cell-based; conditions: Staphylococcus aureus, S. aureus NRS107; for MBC: read-out: MBC; for MIC: read-out: MIC
Method: as §1

MRSA NRS123 (USA400) = experiment: broth microdilution MIC/MBC; assay type: cell-based; conditions: Staphylococcus aureus, MRSA NRS123 (USA400); for MBC: read-out: MBC; for MIC: read-out: MIC
Method: as §1

VRS10 = experiment: broth microdilution MIC/MBC; assay type: cell-based; conditions: Staphylococcus aureus, VRS10, vancomycin-resistant S. aureus; for MBC: read-out: MBC; for MIC: read-out: MIC
Method: as §1

MRSA NRS484 (USA1100) = experiment: broth microdilution MIC/MBC; assay type: cell-based; conditions: Staphylococcus aureus, MRSA NRS484 (USA1100); for MBC: read-out: MBC; for MIC: read-out: MIC
Method: as §1

VRS4 = experiment: broth microdilution MIC/MBC; assay type: cell-based; conditions: Staphylococcus aureus, VRS4, vancomycin-resistant S. aureus; for MBC: read-out: MBC; for MIC: read-out: MIC
Method: as §1

[5] = set-up: method as in PMID 28249208; conditions: human liver microsomes; ref [21]; cited from earlier work
MRSA USA300 (NRS384) = experiment: time-kill assay; assay type: cell-based, Staphylococcus aureus; conditions: 4 × MIC; for reduction of MRSA CFU/mL: within two hours
[6] = aqueous solubility assessment (turbidity); assay type: physicochemical; conditions: aqueous buffer, kinetic from dmso stock
Method: The solutions were diluted 100-fold into PBS in a 96-well plate and mixed. The absorbance of the PBS-containing plate was measured prior to addition of the test agents to determine the background absorbance. After two hours, the presence of precipitate was detected by turbidity (absorbance at 540 nm). […] The solubility limit is reported as the highest experimental concentration with no evidence of turbidity.

[7] = test system: S. epidermidis NRS101 biofilm; experiment: bacterial CFU inside mature biofilm post-treatment; assay type: cell-based, Staphylococcus epidermidis; conditions: 24 hours
Method: as §2, §3

[8] = 4% human serum albumin, read-out: MIC vs. MRSA USA400 (+HSA)
[9] = without human serum albumin, read-out: MIC vs. MRSA USA400 (-HSA)

**Q.** What does the source list for `C/C(=N\NC(=N)N)c1ccc(NC(=O)Nc2ccc(OC3CCCCCC3)cc2)cc1` [compound 2]?
**A.** MIC [1]: ≥ 4 µg/mL; non-toxic up to (concentration) [2]: 64 µg/mL; change in optical density of S. aureus biofilm (biofilm mass) [3]: no change; increase in MIC in the presence of HSA (MRSA USA400 (NRS123)): 15 fold; MIC (MRSA USA400 (NRS123); [8]): 128 µg/mL (≈ 303 µM); MIC (MRSA USA400 (NRS123); [9]): 8 µg/mL (≈ 18.9 µM); reduction in bacterial CFU within S. aureus biofilm ([4]; 64 μg/mL): 0.8 log10; reduction in bacterial CFU within S. aureus biofilm ([4]; 128 μg/mL): 1.76 log10; MBC (MRSA NRS387 (USA800)): 16 µg/mL (≈ 37.9 µM); MIC (MRSA NRS387 (USA800)): 8 µg/mL (≈ 18.9 µM); MBC (VRS11a): 8 µg/mL (≈ 18.9 µM); MIC (VRS11a): 8 µg/mL (≈ 18.9 µM); MBC (VRS7): 16 µg/mL (≈ 37.9 µM); MIC (VRS7): 16 µg/mL (≈ 37.9 µM); MBC (MRSA NRS483 (USA1000)): 16 µg/mL (≈ 37.9 µM); MIC (MRSA NRS483 (USA1000)): 16 µg/mL (≈ 37.9 µM); MBC (MRSA NRS384 (USA300)): 16 µg/mL (≈ 37.9 µM); MIC (MRSA NRS384 (USA300)): 8 µg/mL (≈ 18.9 µM); MBC (S. aureus NRS107): 8 µg/mL (≈ 18.9 µM); MIC (S. aureus NRS107): 8 µg/mL (≈ 18.9 µM); MBC (MRSA NRS123 (USA400)): 8 µg/mL (≈ 18.9 µM); MIC (MRSA NRS123 (USA400)): 8 µg/mL (≈ 18.9 µM); MBC (VRS10): 8 µg/mL (≈ 18.9 µM); MIC (VRS10): 4 µg/mL (≈ 9.47 µM); MBC (MRSA NRS484 (USA1100)): 16 µg/mL (≈ 37.9 µM); MIC (MRSA NRS484 (USA1100)): 16 µg/mL (≈ 37.9 µM); MBC (VRS4): 16 µg/mL (≈ 37.9 µM); MIC (VRS4): 16 µg/mL (≈ 37.9 µM); intrinsic half-life [5]: exceeded four hours; time to completely eradicate a high inoculum of MRSA (~10^6 CFU/mL) (MRSA USA300 (NRS384)): within four hours; reduction of MRSA CFU/mL (MRSA USA300 (NRS384)): 3 log10; solubility at 2 h [6]: 5.15 µg/mL (≈ 12.2 µM); reduction in bacterial CFU within S. epidermidis biofilm ([7]; all concentrations tested (from 8 to 128 μg/mL)): unable to reduce

**Q.** Which MIC [1] does the source give for `C/C(=N\NC(=N)N)c1ccc(NC(=O)Nc2ccc(OCCC(C)C)cc2)cc1` [compound 1] here?
**A.** ≥ 4 µg/mL

**Q.** What about the “non-toxic up to (concentration)” value [2] of the same molecule?
**A.** 32 µg/mL

**Q.** And the “change in optical density of S. aureus biofilm (biofilm mass)” value [3]?
**A.** no change

**Q.** What about the “increase in MIC in the presence of HSA” value (MRSA USA400 (NRS123)) of the same molecule?
**A.** seven-fold

**Q.** And the MIC (MRSA USA400 (NRS123); [8])?
**A.** 32 µg/mL (≈ 80.7 µM)

**Q.** What about the MIC (MRSA USA400 (NRS123); [9]) of the same molecule?
**A.** 4 µg/mL (≈ 10.1 µM)

**Q.** And the “reduction in bacterial CFU within S. aureus biofilm” value ([4]; 64 μg/mL)?
**A.** 0.9 log10

**Q.** And the “reduction in bacterial CFU within S. aureus biofilm” value ([4]; 128 μg/mL)?
**A.** 3.0 log10

**Q.** What about the MBC (MRSA NRS387 (USA800)) of the same molecule?
**A.** 4 µg/mL (≈ 10.1 µM)

**Q.** And the MIC (MRSA NRS387 (USA800))?
**A.** 4 µg/mL (≈ 10.1 µM)

**Q.** What about the MBC (VRS11a) of the same molecule?
**A.** 4 µg/mL (≈ 10.1 µM)

**Q.** And the MIC (VRS11a)?
**A.** 4 µg/mL (≈ 10.1 µM)

**Q.** And the MBC (VRS7)?
**A.** 8 µg/mL (≈ 20.2 µM)

**Q.** And the MIC (VRS7)?
**A.** 8 µg/mL (≈ 20.2 µM)

**Q.** And the MBC (MRSA NRS483 (USA1000))?
**A.** 4 µg/mL (≈ 10.1 µM)

**Q.** What about the MIC (MRSA NRS483 (USA1000)) of the same molecule?
**A.** 4 µg/mL (≈ 10.1 µM)

**Q.** What about the MBC (MRSA NRS384 (USA300)) of the same molecule?
**A.** 4 µg/mL (≈ 10.1 µM)

**Q.** And the MIC (MRSA NRS384 (USA300))?
**A.** 4 µg/mL (≈ 10.1 µM)

**Q.** What about the MBC (S. aureus NRS107) of the same molecule?
**A.** 4 µg/mL (≈ 10.1 µM)

**Q.** And the MIC (S. aureus NRS107)?
**A.** 4 µg/mL (≈ 10.1 µM)

**Q.** What about the MBC (MRSA NRS123 (USA400)) of the same molecule?
**A.** 4 µg/mL (≈ 10.1 µM)

**Q.** And the MIC (MRSA NRS123 (USA400))?
**A.** 4 µg/mL (≈ 10.1 µM)

**Q.** What about the MBC (VRS10) of the same molecule?
**A.** 4 µg/mL (≈ 10.1 µM)

**Q.** What about the MIC (VRS10) of the same molecule?
**A.** 4 µg/mL (≈ 10.1 µM)

**Q.** What about the MBC (MRSA NRS484 (USA1100)) of the same molecule?
**A.** 8 µg/mL (≈ 20.2 µM)

**Q.** And the MIC (MRSA NRS484 (USA1100))?
**A.** 8 µg/mL (≈ 20.2 µM)

**Q.** And the MBC (VRS4)?
**A.** 8 µg/mL (≈ 20.2 µM)

**Q.** What about the MIC (VRS4) of the same molecule?
**A.** 8 µg/mL (≈ 20.2 µM)

**Q.** What about the intrinsic half-life [5] of the same molecule?
**A.** exceeded four hours

**Q.** And the “time to completely eradicate a high inoculum of MRSA (~10^6 CFU/mL)” value (MRSA USA300 (NRS384))?
**A.** within four hours

**Q.** What about the “reduction of MRSA CFU/mL” value (MRSA USA300 (NRS384)) of the same molecule?
**A.** 3 log10

**Q.** What about the solubility at 2 h [6] of the same molecule?
**A.** 23.9 µg/mL (≈ 60.4 µM)

**Q.** What about the “reduction in bacterial CFU within S. epidermidis biofilm” value ([7]; 64 μg/mL) of the same molecule?
**A.** 1.0 log10

**Q.** And the “reduction in bacterial CFU within S. epidermidis biofilm” value ([7]; 128 μg/mL)?
**A.** 2.84 log10

**Q.** And the “reduction in bacterial CFU within S. epidermidis biofilm” value ([7]; 8, 16, and 32 μg/mL, vs untreated control)?
**A.** no reduction
